This note sets out measurements from patent US9770026B2, “Substituted pyrimidine compound and uses thereof” (Shenyang Sinochem Agrochemicals R&D Co., Ltd., priority 2012, dated 2017).

The structures appear in SMILES notation.

One assay relates to rice blast. In words: microbe, parasite or virus in culture. The settings on record: for inhibition at 8.3 ppm: read-out: inhibition rate against rice blast, 8.3 ppm, in vitro; for inhibition at 25 ppm: read-out: inhibition rate against rice blast, 25 ppm, in vitro; for inhibition rate against rice blast: in vitro. The format is cell-based.
Another assay deals with corn rust. Briefly: protectant activity in vivo against corn rust. The settings on record: for pest or weed control at 100 ppm: read-out: protectant activity against corn rust in vivo, 100 ppm; for pest or weed control at 400 ppm: read-out: protectant activity against corn rust in vivo, 400 ppm.
Another assay deals with wheat powdery mildew. Briefly: protectant activity in vivo against wheat powdery mildew. The conditions noted are these: for pest or weed control at 400 ppm: read-out: protectant activity against wheat powdery mildew in vivo, 400 ppm; for protectant activity against wheat powdery mildew in vivo: 400 ppm.
Assay [1] deals with Green peach aphids (Myzus Persicae Sulzer). Briefly: bioactivity test against green peach aphid, airbrush foliar spray. The format is in vivo. The conditions noted are these: for pest or weed control at 10 ppm / pest or weed control at 100 ppm / pest or weed control at 600 ppm: Myzus persicae, foliar, 48 h; for pest or weed control at 10 ppm / pest or weed control at 100 ppm / pest or weed control at 600 ppm / control (test results against green peach aphid): death rate after 48 hrs; for Insecticidal activity against peach aphid (%): contrastive test. The method in brief:
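Death rate was scored at 48 hrs, held at 25±1 C and 60±5% RH, following airbrush foliar spray (0.5 mL, 10 psi) onto cabbage leaf discs bearing about 15-30 aphids. Test solutions: compound dissolved in 1:1 acetone:methanol, brought to concentration with 0.1% tween 80 water.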

In the next assay the test system is cucumber downy mildew. In words: protectant activity in vivo against cucumber downy mildew. The settings on record: for pest or weed control at 400 ppm: read-out: protectant activity against cucumber downy mildew in vivo, 400 ppm; for control effect against cucumber downy mildew (%): protectant activity.
For the next assay, the system named is carmine spider mite. Briefly: bioactivity test against carmine spider mite, airbrush spray. The format is in vivo. The settings on record: for pest or weed control at 100 ppm / pest or weed control at 600 ppm: Tetranychus cinnabarinus, 72 h; for pest or weed control at 100 ppm / pest or weed control at 600 ppm / control against carmine spider mite: mortality after 72 hrs; for Insecticidal activity against carmine spider mite (% ): contrastive test. The method in brief:
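Broadbean seedlings infested with adult mites were sprayed with compound (acetone/methanol stock diluted in 0.1% Tween 80 water) by airbrush at 0.7 kg/cm^2, 0.5 ml. Three replicates were run. Mortality was scored after 72 hrs.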

The next assay concerns armyworm. In words: bioactivity test against armyworm, airbrush spray. The format is in vivo. The settings on record: for control (test results against armyworm): mortality after 72 h.
Another assay concerns Diamond back moth. In words: insecticidal activity against diamond back moth, airbrush spray. Type of assay: in vivo. The conditions noted are these: for control (test results against diamond back moth): mortality after 72 hrs. The method in brief:
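Airbrush leaf-disc spray test: both faces of 2 cm cabbage discs received 0.5 ml of test solution at 0.7 kg/cm^2. Solutions were made in acetone:methanol (1:1) and brought to concentration with 0.1% Tween 80 in water. Ten second-instar larvae per disc, triplicates, were held at 25° C and 60˜70% R.H., with mortality recorded at 72 hrs.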

Broadly, the inhibition is the share of the control response that was lost under treatment.

Regarding `CCc1c(Cl)c(NCCc2ccc(Oc3ccc(C(F)(F)F)cc3)cc2)nc[n+]1CC(=O)c1ccc(Cl)cc1` [CK50, reference compound], in the assay with rice blast (Pyricularia oryzae), the inhibition at 8.3 ppm is 0% and the inhibition at 25 ppm is < 50%. Besides, the pest or weed control at 6.25 µg/mL in the assay on corn rust (Zea mays, 168 h, read-out: control effect against corn rust (%), 6.25 mg/L, protectant activity) was determined as 0%. Besides, in the assay with corn rust (Zea mays, 168 h, read-out: control effect against corn rust (%), 25 mg/L, protectant activity), the pest or weed control at 25 µg/mL came to 0%. The pest or weed control at 100 µg/mL in the assay on corn rust (Zea mays, 168 h, read-out: control effect against corn rust (%), 100 mg/L, protectant activity) was found to be 0%. The pest or weed control at 400 µg/mL with corn rust (Zea mays, 168 h, read-out: control effect against corn rust (%), 400 mg/L, protectant activity) was 80%.

With `FC(F)(F)c1ccc(Oc2ccc(CCNc3ncnc(CCl)c3Cl)cc2)nc1` [Compound I-2922], the “inhibition rate against rice blast” value in the assay with rice blast (0.1 ppm), in the assay on rice blast (0.3 ppm), in the assay with rice blast (0.9 ppm), with rice blast (2.8 ppm) and in the assay with rice blast (8.3 ppm) was 100% each time. Also, the “protectant activity against corn rust in vivo” value in the assay on corn rust (100 ppm) and in the assay on corn rust (400 ppm) was 100% throughout.

With `CCc1nc(C)nc(NCCc2ccc(Oc3ncc(C(N)=O)cc3Cl)cc2)c1Cl` [Compound I-6791], the inhibition at 25 ppm with rice blast (Pyricularia oryzae) was in the range of 80 to 99%. Moreover, in the assay with corn rust (Zea mays, 168 h), the pest or weed control at 100 ppm lay in the range of 80 to 99% and the pest or weed control at 400 ppm was found to be 100%.

On to `CCc1nc(C)nc(NCCc2ccc(Oc3ncccc3C(F)(F)F)cc2)c1Cl` [Compound I-6793], for which the pest or weed control at 25 ppm with wheat powdery mildew (Triticum aestivum, 168 h, read-out: protectant activity against wheat powdery mildew in vivo, 25 ppm) is 100%. Also, the pest or weed control at 100 ppm was 100% in the assay with wheat powdery mildew (Triticum aestivum, 168 h, read-out: protectant activity against wheat powdery mildew in vivo, 100 ppm) and 100% in assay [1] (100 ppm). Moreover, the pest or weed control at 400 ppm in the assay on wheat powdery mildew (Triticum aestivum, 168 h) is 100%; with corn rust (Zea mays, 168 h), 100%; in the assay with cucumber downy mildew (Cucumis sativus, 168 h), 80 to 99%. Moreover, the inhibition at 25 ppm in the assay on rice blast (Pyricularia oryzae) was 80 to 99%. For the same compound, in assay [1] (10 ppm), the pest or weed control at 10 ppm was in the range of 80 to 99%. Moreover, the pest or weed control at 600 ppm in assay [1] (600 ppm) was 100%.

As to `CCc1nc(C)nc(NCCc2ccc(Oc3ccc(C#N)cn3)cc2)c1Cl` [Compound I-6795], the pest or weed control at 400 ppm in the assay with wheat powdery mildew (Triticum aestivum, 168 h) was 100%; with corn rust (Zea mays, 168 h), 100%. In addition, the inhibition at 25 ppm in the assay with rice blast (Pyricularia oryzae) fell in the range of 80 to 99%. For the same compound, the pest or weed control at 100 ppm in the assay with carmine spider mite (100 ppm) was 100%. Besides, the pest or weed control at 600 ppm (with carmine spider mite (600 ppm); in assay [1] (600 ppm)) was 100% throughout.

For `CCc1nc(C)nc(NCCc2ccc(Oc3ccc(C(=O)OC)cn3)cc2)c1Cl` [Compound I-6797], the pest or weed control at 400 ppm lay in the range of 80 to 99% with wheat powdery mildew (Triticum aestivum, 168 h) and 80 to 99% with cucumber downy mildew (Cucumis sativus, 168 h). The inhibition at 25 ppm in the assay on rice blast (Pyricularia oryzae) was in the range of 80 to 99%. For the same compound, the pest or weed control at 100 ppm (in the assay on carmine spider mite (100 ppm); in assay [1] (100 ppm)) was 100% each time. For the same compound, the pest or weed control at 600 ppm (in the assay on carmine spider mite (600 ppm); in assay [1] (600 ppm)) was 100% in each case. The pest or weed control at 10 ppm in assay [1] (10 ppm) lay in the range of 80 to 99%.

Regarding `Cc1ncnc(NCCc2ccc(Oc3c(Cl)cc([N+](=O)[O-])cc3Cl)cc2)c1Cl` [II-165], the inhibition at 0.1 ppm in the assay on rice blast (Pyricularia oryzae, read-out: inhibition rate against rice blast, 0.1 ppm, in vitro) amounted to 100%. In addition, the inhibition at 0.3 ppm in the assay on rice blast (Pyricularia oryzae, read-out: inhibition rate against rice blast, 0.3 ppm, in vitro) is 100%. For the same compound, in the assay on rice blast (Pyricularia oryzae, read-out: inhibition rate against rice blast, 0.9 ppm, in vitro), the inhibition at 0.9 ppm is 100%. Moreover, in the assay with rice blast (Pyricularia oryzae, read-out: inhibition rate against rice blast, 2.8 ppm, in vitro), the inhibition at 2.8 ppm is 100%. In addition, in the assay on rice blast (Pyricularia oryzae), the inhibition at 8.3 ppm turned out to be 100% and the inhibition at 25 ppm turned out to be 100%. Besides, in the assay on carmine spider mite (600 ppm), the pest or weed control at 600 ppm lay in the range of 80 to 99%. For the same compound, in the assay with corn rust (Zea mays, 168 h), the pest or weed control at 100 ppm was in the range of 80 to 99% and the pest or weed control at 400 ppm stood at 100%.

Regarding `FC(F)c1ncnc(NCCc2ccc(Oc3ccccc3)nc2)c1Cl` [III-541], the “control (test results against armyworm)” value in the assay with armyworm (600 ppm) is reported as 100%. Also, in the assay on wheat powdery mildew, the “protectant activity against wheat powdery mildew in vivo” value is reported as 100%. Further, the “control against carmine spider mite” value in the assay with carmine spider mite (600 ppm) is recorded as 100%. The “control (test results against diamond back moth)” value with Diamond back moth (600 ppm) is listed as 100%. For the same compound, the “protectant activity against corn rust in vivo” value in the assay on corn rust (400 ppm) is 100%. Also, the “control (test results against green peach aphid)” value in assay [1] (100 ppm) and in assay [1] (600 ppm) was 100% each time. The “control effect against cucumber downy mildew (%)” value (from here on “control effect … (%)”) in the assay on cucumber downy mildew (3.125 mg/L) turned out to be 95%; in the assay with cucumber downy mildew (6.25 mg/L), 100%; in the assay on cucumber downy mildew (12.5 mg/L), 100%; with cucumber downy mildew (25 mg/L), 100%; in the assay on cucumber downy mildew (50 mg/L), 100%; with cucumber downy mildew (100 mg/L), 100%. Moreover, the “control effect … (%)” value in the assay with cucumber downy mildew (400 mg/L) is reported as 100%. Also, the “protectant activity against cucumber downy mildew in vivo” value in the assay with cucumber downy mildew (6.25 ppm), in the assay with cucumber downy mildew (12.5 ppm), in the assay with cucumber downy mildew (25 ppm), with cucumber downy mildew (50 ppm), in the assay on cucumber downy mildew (100 ppm) and in the assay with cucumber downy mildew (400 ppm) was 100% each time.

With `FC(F)c1ncnc(NCCc2ccc(Oc3ccc(Cl)cc3)nc2)c1Cl` [III-547], the “Insecticidal activity against armyworm (%)” value in the assay on armyworm (10 mg/L) is reported as 95%; with armyworm (100 mg/L), 100%; in the assay on armyworm (600 mg/L), 100%. The “control (test results against armyworm)” value with armyworm (100 ppm) and in the assay on armyworm (600 ppm) was 100% in each case. The “protectant activity against wheat powdery mildew in vivo” value in the assay on wheat powdery mildew turned out to be 100%. Besides, the “Insecticidal activity against carmine spider mite (% )” value with carmine spider mite (100 mg/L) and in the assay on carmine spider mite (600 mg/L) was 100% in each case. The “control against carmine spider mite” value with carmine spider mite (100 ppm) and with carmine spider mite (600 ppm) was 100% throughout. Besides, the “Insecticidal activity against diamond back moth (%)” value came to 57% in the assay with Diamond back moth (10 mg/L), 100% with Diamond back moth (100 mg/L) and 100% with Diamond back moth (600 mg/L). Moreover, the “control (test results against diamond back moth)” value with Diamond back moth (100 ppm) and in the assay on Diamond back moth (600 ppm) was 100% throughout. In addition, the “protectant activity against corn rust in vivo” value in the assay on corn rust (400 ppm) is on record as 100%. In addition, the “Insecticidal activity against peach aphid (%)” value in assay [1] (10 mg/L), in assay [1] (100 mg/L) and in assay [1] (600 mg/L) was 100% throughout. The “control (test results against green peach aphid)” value in assay [1] (10 ppm), in assay [1] (100 ppm) and in assay [1] (600 ppm) was 100% in each case. Further, the “control effect … (%)” value with cucumber downy mildew (25 mg/L), in the assay with cucumber downy mildew (50 mg/L), in the assay on cucumber downy mildew (100 mg/L) and with cucumber downy mildew (400 mg/L) was 100% throughout. Further, the “protectant activity against cucumber downy mildew in vivo” value with cucumber downy mildew (25 ppm), in the assay on cucumber downy mildew (50 ppm), in the assay on cucumber downy mildew (100 ppm) and with cucumber downy mildew (400 ppm) was 100% in each case.

As to `FC(F)c1ncnc(NCCc2ccc(Oc3ccc(C(F)(F)F)cc3Cl)nc2)c1Cl` [III-661], in the assay with rice blast (8.3 ppm), the “inhibition rate against rice blast” value came to 100%. Besides, the “protectant activity against corn rust in vivo” value in the assay on corn rust (100 ppm) and in the assay with corn rust (400 ppm) was 100% throughout. Besides, the “control (test results against green peach aphid)” value in assay [1] (100 ppm) and in assay [1] (600 ppm) was 100% each time.

As to `Cc1cc(Cl)ccc1Oc1ccc(CCNc2ncnc(Cl)c2Cl)cn1` [III-2630], in the assay with rice blast (Pyricularia oryzae), the inhibition at 25 ppm lay in the range of 80 to 99%. Further, the pest or weed control at 400 ppm in the assay with corn rust (Zea mays, 168 h) amounted to 100%; in the assay with cucumber downy mildew (Cucumis sativus, 168 h), 100%. Also, in the assay on cucumber downy mildew (Cucumis sativus, 168 h, read-out: protectant activity against cucumber downy mildew in vivo, 50 ppm), the pest or weed control at 50 ppm fell in the range of 80 to 99%. Further, the pest or weed control at 100 ppm with cucumber downy mildew (Cucumis sativus, 168 h, read-out: protectant activity against cucumber downy mildew in vivo, 100 ppm) lay in the range of 80 to 99%.
